Assay results from ChEMBL document CHEMBL5120890, “Untapped Pharmaceutical Potential of 4,5,4'-Trihydroxy-3,3'-dimethoxybibenzyl for Regulating Obesity: A Cell-Based Study with a Focus on Terminal Differentiation in Adipogenesis” (J Nat Prod, 2022).
Active and inactive are the calls of the source.

What was measured:
3T3-L1 [1] = test: Inhibition of AKT/GSK3beta signalling pathway in mouse 3T3-L1 cells assessed as reduction in GSK3beta phosphorylation in early differentiation at 0.5 to 5 uM after 48 hrs by Western blot analysis; format: cell-based; details: dose 0.5-5 µM
[2] = (§1) Cytotoxicity against mouse 3T3-L1 pre-adipocytes assessed as reduction in cell viability after 48 hrs by MTT assay; format: toxicity, cell-based; details: 3T3-L1 pre-adipocytes
3T3-L1 [3] = test: as §1; format: toxicity, cell-based; details: 3t3-l1, 48 h, time 48 hrs
[4] = (§2) Cytotoxicity against mouse 3T3-L1 adipocytes assessed as reduction in cell viability after 48 hrs by MTT assay; format: toxicity, cell-based; details: 3T3-L1 adipocytes
3T3-L1 [5] = test: as §2; format: toxicity, cell-based; details: 3t3-l1, 48 h, time 48 hrs
3T3-L1 [6] = test: Induction of apoptosis in mouse 3T3-L1 pre-adipocytes at 0.5 to 5 uM after 48 hrs by PI/Hoechst 33342 staining based fluorescence microscopic analysis; format: functional, cell-based; details: dose 0.5-5 µM
PCS-210-010 [7] = test: Induction of apoptosis in human PCS-210-010 pre-adipocytes at 0.5 to 5 uM after 48 hrs by PI/Hoechst 33342 staining based fluorescence microscopic analysis; format: functional, cell-based; details: dose 0.5-5 µM
3T3-L1 [8] = test: Inhibition of preadipocyte differentiation in mouse 3T3-L1 cells assessed as reduction in lipid droplet accumulation in maturation at 0.5 to 5 uM incubated for 8 days by Oil Red O staining based inverted optical microscopic analysis; format: functional, cell-based; details: dose 0.5-5 µM, time 8.0 day
3T3-L1 [9] = test: Inhibition of preadipocyte differentiation in mouse 3T3-L1 cells assessed as reduction in triglyceride accumulation in maturation at 0.5 to 5 uM incubated for 8 days by colorimetric assay; format: functional, cell-based; details: dose 0.5-5 µM, time 8.0 day, DDE = dose-dependent effect
3T3-L1 [10] = test: Inhibition of preadipocyte differentiation in mouse 3T3-L1 cells assessed as increase in glycerol release in early differentiation at 0.5 to 5 uM incubated for 8 days by colorimetric assay; format: functional, cell-based; details: dose 0.5-5 µM, time 8.0 day, DDE = dose-dependent effect
PCS-210-010 [11] = test: Inhibition of preadipocyte differentiation in human PCS-210-010 cells assessed as increase in glycerol release in maturation at 0.5 to 5 uM incubated for 8 days by colorimetric assay; format: functional, cell-based; details: dose 0.5-5 µM, time 8.0 day, DDE = dose-dependent effect
3T3-L1 [12] = test: Down regulation of FAS protein expression in mouse 3T3-L1 cells in early differentiation at 0.5 to 5 uM after 8 days by western blot analysis; format: functional, cell-based; details: dose 0.5-5 µM, time 8.0 day
3T3-L1 [13] = test: Down regulation of CDK2 protein expression in mouse 3T3-L1 cells at 0.5 to 5 uM after 18 hrs by western blot analysis; format: functional, cell-based; details: dose 0.5-5 µM
3T3-L1 [14] = test: Down regulation of CDK4 protein expression in mouse 3T3-L1 cells at 0.5 to 5 uM after 18 hrs by western blot analysis; format: functional, cell-based; details: dose 0.5-5 µM
3T3-L1 [15] = test: Upregulation of p18 protein expression in mouse 3T3-L1 cells at 0.5 to 5 uM after 18 hrs by western blot analysis; format: functional, cell-based; details: dose 0.5-5 µM
3T3-L1 [16] = test: Down regulation of SREBP1 protein expression in mouse 3T3-L1 cells at 0.5 to 5 uM after 48 hrs by western blot analysis; format: functional, cell-based; details: dose 0.5-5 µM, DDE = dose-dependent effect
3T3-L1 [17] = test: Down regulation of C/EBpalpha protein expression in mouse 3T3-L1 cells at 0.5 to 5 uM after 48 hrs by western blot analysis; format: functional, cell-based; details: dose 0.5-5 µM, DDE = dose-dependent effect
3T3-L1 [18] = test: Down regulation of PLIN1 protein expression in mouse 3T3-L1 cells in early differentiation at 0.5 to 5 uM after 8 days by western blot analysis; format: functional, cell-based; details: dose 0.5-5 µM, time 8.0 day
3T3-L1 [19] = test: Down regulation of adiponectin protein expression in mouse 3T3-L1 cells in early differentiation at 0.5 to 5 uM after 8 days by western blot analysis; format: functional, cell-based; details: dose 0.5-5 µM, time 8.0 day
3T3-L1 [20] = test: Down regulation of FABP4 protein expression in mouse 3T3-L1 cells in early differentiation at 0.5 to 5 uM after 8 days by western blot analysis; format: functional, cell-based; details: dose 0.5-5 µM, time 8.0 day
3T3-L1 [21] = test: Down regulation of PL1N1 protein expression in mouse 3T3-L1 cells in maturation at 0.5 to 5 uM after 10 days by western blot analysis; format: functional, cell-based; details: dose 0.5-5 µM, time 10.0 day
3T3-L1 [22] = test: Down regulation of FABP4 protein expression in mouse 3T3-L1 cells in maturation at 0.5 to 5 uM after 10 days by western blot analysis; format: functional, cell-based; details: dose 0.5-5 µM, time 10.0 day
3T3-L1 [23] = test: Down regulation of FAS mRNA expression in mouse 3T3-L1 cells in early differentiation at 0.5 to 5 uM after 8 days by RT-qPCR analysis; format: functional, cell-based; details: dose 0.5-5 µM, time 8.0 day
3T3-L1 [24] = test: Down regulation of PL1N1 mRNA expression in mouse 3T3-L1 cells in early differentiation at 0.5 to 5 uM after 8 days by RT-qPCR analysis; format: functional, cell-based; details: dose 0.5-5 µM, time 8.0 day
3T3-L1 [25] = test: Down regulation of adiponectin mRNA expression in mouse 3T3-L1 cells in early differentiation at 0.5 to 5 uM after 8 days by RT-qPCR analysis; format: functional, cell-based; details: dose 0.5-5 µM, time 8.0 day
3T3-L1 [26] = test: Down regulation of FABP4 mRNA expression in mouse 3T3-L1 cells in early differentiation at 0.5 to 5 uM after 8 days by RT-qPCR analysis; format: functional, cell-based; details: dose 0.5-5 µM, time 8.0 day
3T3-L1 [27] = test: Down regulation of FAS mRNA expression in mouse 3T3-L1 cells in maturation at 0.5 to 5 uM after 10 days by RT-qPCR analysis; format: functional, cell-based; details: dose 0.5-5 µM, time 10.0 day
3T3-L1 [28] = test: Down regulation of PL1N1 mRNA expression in mouse 3T3-L1 cells in maturation at 0.5 to 5 uM after 10 days by RT-qPCR analysis; format: functional, cell-based; details: dose 0.5-5 µM, time 10.0 day
3T3-L1 [29] = test: Down regulation of LPL mRNA expression in mouse 3T3-L1 cells in maturation at 0.5 to 5 uM after 10 days by RT-qPCR analysis; format: functional, cell-based; details: dose 0.5-5 µM, time 10.0 day
3T3-L1 [30] = test: Down regulation of FABP4 mRNA expression in mouse 3T3-L1 cells in maturation at 0.5 to 5 uM after 10 days by RT-qPCR analysis; format: functional, cell-based; details: dose 0.5-5 µM, time 10.0 day
[31] = target: RAC-alpha serine/threonine-protein kinase (Mus musculus) (UniProt P31750); test: Inhibition of AKT in mouse 3T3-L1 cells assessed as reduction in AKT phosphorylation in early differentiation at 0.5 to 5 uM after 48 hrs by Western blot analysis; format: cell-based; details: dose 0.5-5 µM
3T3-L1 [32] = test: Activation of AMPK-ACC signalling pathway in mouse 3T3-L1 cells assessed as increase in ACC phosphorylation in early differentiation at 0.5 to 5 uM after 48 hrs by Western blot analysis; format: cell-based; details: filed as activator, dose 0.5-5 µM
[33] = target: RAC-alpha serine/threonine-protein kinase (Mus musculus) (UniProt P31750); test: Inhibition of AKT in mouse 3T3-L1 cells assessed as reduction in AKT phosphorylation in maturation at 0.5 to 5 uM after 48 hrs by Western blot analysis; format: cell-based; details: dose 0.5-5 µM
3T3-L1 [34] = test: Inhibition of AKT/GSK3beta signalling pathway in mouse 3T3-L1 cells assessed as reduction in GSK3beta phosphorylation in maturation at 0.5 to 5 uM after 48 hrs by Western blot analysis; format: cell-based; details: dose 0.5-5 µM
[35] = target: 5'-AMP-activated protein kinase (Mus musculus) (UniProt Q5EG47+Q8BRK8+Q6PAM0+O54950+Q91WG5+Q9R078+Q8BGM7); test: Activation of AMPK in mouse 3T3-L1 cells assessed as increase in AMPKbeta phosphorylation in maturation at 0.5 to 5 uM after 48 hrs by Western blot analysis; format: cell-based; details: filed as activator, dose 0.5-5 µM
3T3-L1 [36] = test: Activation of AMPK-ACC signalling pathway in mouse 3T3-L1 cells assessed as increase in ACC phosphorylation in maturation at 0.5 to 5 uM after 48 hrs by Western blot analysis; format: cell-based; details: filed as activator, dose 0.5-5 µM

Sequence of RAC-alpha serine/threonine-protein kinase (Mus musculus) (P31750 whole entry): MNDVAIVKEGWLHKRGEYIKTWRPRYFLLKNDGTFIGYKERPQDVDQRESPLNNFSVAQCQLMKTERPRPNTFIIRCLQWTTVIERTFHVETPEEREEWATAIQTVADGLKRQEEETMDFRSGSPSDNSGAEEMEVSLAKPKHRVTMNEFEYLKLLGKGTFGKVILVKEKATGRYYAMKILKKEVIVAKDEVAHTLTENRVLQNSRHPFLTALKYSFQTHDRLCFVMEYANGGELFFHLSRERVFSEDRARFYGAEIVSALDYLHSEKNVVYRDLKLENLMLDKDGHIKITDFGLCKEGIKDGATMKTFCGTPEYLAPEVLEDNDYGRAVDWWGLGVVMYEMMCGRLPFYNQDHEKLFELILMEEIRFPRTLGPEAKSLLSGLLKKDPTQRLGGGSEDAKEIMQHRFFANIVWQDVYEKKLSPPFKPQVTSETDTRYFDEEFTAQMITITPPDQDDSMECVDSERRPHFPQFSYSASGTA

COc1cc(CCc2cc(O)c(O)c(OC)c2)ccc1O
active: inhibition (3T3-L1 [1]) | inhibition (3T3-L1 [8]) | inhibition (3T3-L1 [9]) Dde | inhibition (3T3-L1 [10]) Dde | inhibition (PCS-210-010 [11]) Dde | Activity (3T3-L1 [12]) | Activity (3T3-L1 [13]) | Activity (3T3-L1 [14]) | Activity (3T3-L1 [15]) | Activity (3T3-L1 [16]) Dde | Activity (3T3-L1 [17]) Dde | Activity (3T3-L1 [18]) | Activity (3T3-L1 [19]) | Activity (3T3-L1 [20]) | Activity (3T3-L1 [21]) | Activity (3T3-L1 [22]) | Activity (3T3-L1 [23]) | Activity (3T3-L1 [24]) | Activity (3T3-L1 [25]) | Activity (3T3-L1 [26]) | Activity (3T3-L1 [27]) | Activity (3T3-L1 [28]) | Activity (3T3-L1 [29]) | Activity (3T3-L1 [30]) | inhibition [31] | Activity (3T3-L1 [32]) | inhibition [33] | inhibition (3T3-L1 [34]) | Activity [35] | Activity (3T3-L1 [36])
Toxic: Activity (3T3-L1 [3]) | Activity (3T3-L1 [5])
inactive: Activity (3T3-L1 [6]) Non-Toxic | Activity (PCS-210-010 [7]) Non-Toxic
72.4 µM: IC50 at 48 h [4]
35.5 µM: IC50 at 48 h [2]
